Each block holds one compound with its values, some of them ahead of it.
Assays:
mice [1] = assay: Chronic social defeat (CSD) and social interaction test; type: in vivo, mouse; conditions: after CSD; fluoxetine 20 mg/kg, compound 73 5 mg/kg, compound 101 50 mg/kg
Description: Additionally, when combined with a dose of Citalopram with lower activity, these compounds seemed to have an additive effect (See FIG. 10). The dose of Citalopram chosen for this experiment was based on literature stating 2 mg/kg should be subactive, but this dose was found still showing an effect. Mice then underwent chronic social defeat stress, in which the mice are exposed to an aggressive resident mouse for 5 minutes daily for 10 days and are then tested on the 11th day in the social interaction test. Mice treated with vehicle for 20 total days, beginning 10 days before the defeat, show reduced time spent in the interaction zone when a target mouse is present when compared with control mice. […] The percent of mice found to be resilient, defined as spending more time in the interaction zone than the lowest control (i.e. ˜52 s), is higher in HDAC6 inhibitor groups. All behavior testing done using NIH Swiss mice, age 6-10 weeks. Tukey post-hoc analysis: * P=0.01 to 0.05, ** P=0.001-0.01, ***P<0.001 compared with vehicle treated mice.
The effects were observed 30 minutes after acute 50 mg/kg i.p. injection, but not for the lower dose (5 mg/kg). Combination of subactive doses of the HDAC6 selective inhibitors (5 mg/kg) and citalopram (0.5 mg/kg) produced robust potentiation of anti-immobility activity (n=8-29 per condition). […] No difference was observed between HDAC6 WT and KO when treated with the vehicle (n=6-15 per condition). FIG. 16c is a timeline showing treatment period, social defeat and social interaction (SI) testing.
A pro-resilient phenotype in the mouse CSD paradigm after serotonin-selective KO of HDAC6 was previously reported (Espallergues et al, 2012). Whether a chronic pharmacological inhibition of HDAC6 can replicate that phenotype is studied. […] On day 21, 24 h after the last injection, the mice were tested in the social interaction test. […] Significant effects were also observed when data was evaluated in terms of proportion of mice reaching criterion for resiliency.

[2] = tested on: RN46A-B14 serotonergic cell line; assay: Histone H3K9 acetylation in RN46A-B14 cells (Western blot); type: cell-based, rat; conditions: 4 hours
[3] = tested on: RN46A-B14 serotonergic cell line; assay: α-tubulin K40 acetylation in RN46A-B14 cells (Western blot); type: cell-based, rat; conditions: for acetylated (lysine 40) fraction of α-tubulin: 4 hours, TSA 0.6 μM, others 2.5 μM
Description: In FIG. 3, it was observed that subchronic treatment, consisting of 5 treatments at 48, 28, 24, 4 and ½ hours before sacrifice, led to greater increase in tubulin acetylation than did chronic treatment of 1 injection/day for 21 days. For cell culture, RN46B cells were treated for with 0.25, 2.5 or 25 μM drug in DMSO for 1, 4 or 24 hours as indicated. Tukey post-hoc analysis: * P=0.01 to 0.05, ** P=0.001-0.01, ***P<0.001 when compared with vehicle treatment.
Results are shown as percent change normalized to the vehicle treatment condition. The horizontal hard line depicts average and the dotted lines depict SEM of the vehicle treated wells. Representative Western blot images are presented. […] Representative Western blot images are presented. […] The drugs (5 mg/kg) were administered subchronically (at 24 h, 4 h and 30 min prior to sacrifice) to HDAC6 KO and WT littermates. The changes in tubulin acetylation were measured in tissue lysates from cortex (ctx), hippocampus (Hpc), dorsal Raphe nucleus (DRN) and cerebellum (cb). The tubulin acetylation levels in drug-treated mice are expressed as percent change of the vehicle-treated mice of the corresponding genotype. The horizontal lines depict the average tubulin acetylation±SEM in the vehicle treated mice. The representative Western blot images show the changes induced by each drug treatment in the hippocampus (left column) and dorsal raphe (right column) of WT and HDAC6 KO mice.
In contrast to the class I isoforms HDAC2 and 3, which are expressed highly and ubiquitously in the mouse brain, HDAC6 mRNA expression appears to be restricted to a small number of brain areas, with highest signal observed in DRN (FIG. 13f). […] No changes in total α-tubulin expression were detected (FIG. 14a).

mice [4] = assay: Elevated plus maze (EPM); type: in vivo, mouse; conditions: acute administration
HDAC3 = HDAC3 (Homo sapiens, UniProt O15379); assay: HDAC enzyme assay, HDAC3; conditions: selectivity HDAC6 over HDAC3
HDAC2 = HDAC2 (Homo sapiens, UniProt Q92769); assay: HDAC enzyme assay, HDAC2; conditions: selectivity HDAC6 over HDAC2
HDAC1 = HDAC1 (Homo sapiens, UniProt Q13547); assay: HDAC enzyme assay, HDAC1; conditions: selectivity HDAC6 over HDAC1
[5] = tested on: histone H3 lysine 9 acetylation; assay: Histone H3K9 acetylation in vivo (Western blot, ChIP); parameters: species or system mouse; conditions: hippocampus; repeated i.p.; compound 73 5 mg/kg, sodium butyrate 1.2 g/kg
[6] = tested on: α-tubulin acetylation in heart; assay: α-tubulin acetylation in heart after single systemic administration; type: in vivo, mouse; conditions: 10 mg/kg
Description: The changes were significant at 30 minutes (F3,13=163.4, P<0.0001), 1 hour (F3,13=163.9, P<0.0001) and 4 hours (F3,14=4.703, P=0.0179) after the administrations.

[7] = tested on: α-tubulin acetylation in mouse whole brain lysates; assay: α-tubulin acetylation in whole brain lysates after single i.p. administration; type: in vivo; conditions: compound 73 5 mg/kg, compound 101 50 mg/kg, tubastatin A 10 mg/kg, 30 min, 1 h, 4 h
mice [8] = assay: Open-field test; type: in vivo, mouse; conditions: acute; compounds 73, 101 50 mg/kg; tubastatin A 10 mg/kg
[9] = Pharmacokinetics and brain bio-distribution in mice; type: in vivo, mouse
Description: […] Plasma samples were taken from all mice upon sacrifice. Brain samples were taken from the mice sacrificed at 5 and 15 minutes and 1 and 4 hours. The brain samples were homogenized in PBS and centrifuged at 14000 rpm for 5 minutes. The supernatant from the brain homogenate and the plasma samples were injected onto a LC/MS/MS for analysis. The compound level in the samples was determined by a standard curve in the appropriate matrix. Pharmacokinetic parameters were determined from the raw data by WinNonLin.

HDAC3, sequence (O15379 whole entry): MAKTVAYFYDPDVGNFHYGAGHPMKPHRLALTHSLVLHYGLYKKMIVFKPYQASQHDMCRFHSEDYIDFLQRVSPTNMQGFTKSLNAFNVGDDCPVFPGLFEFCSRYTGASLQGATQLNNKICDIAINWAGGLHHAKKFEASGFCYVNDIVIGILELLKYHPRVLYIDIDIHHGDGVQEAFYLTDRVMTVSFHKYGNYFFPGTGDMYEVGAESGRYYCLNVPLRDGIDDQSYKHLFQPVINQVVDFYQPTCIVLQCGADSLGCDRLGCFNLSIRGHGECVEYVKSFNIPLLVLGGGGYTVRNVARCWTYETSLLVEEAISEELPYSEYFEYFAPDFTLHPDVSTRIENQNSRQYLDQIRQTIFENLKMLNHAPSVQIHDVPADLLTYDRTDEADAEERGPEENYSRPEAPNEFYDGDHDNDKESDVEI
HDAC3, sequence (Q9Y618 395-489 partner limits assumed): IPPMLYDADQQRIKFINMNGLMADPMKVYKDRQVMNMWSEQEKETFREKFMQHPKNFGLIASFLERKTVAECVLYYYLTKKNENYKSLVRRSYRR
HDAC2, sequence (Q92769 whole entry): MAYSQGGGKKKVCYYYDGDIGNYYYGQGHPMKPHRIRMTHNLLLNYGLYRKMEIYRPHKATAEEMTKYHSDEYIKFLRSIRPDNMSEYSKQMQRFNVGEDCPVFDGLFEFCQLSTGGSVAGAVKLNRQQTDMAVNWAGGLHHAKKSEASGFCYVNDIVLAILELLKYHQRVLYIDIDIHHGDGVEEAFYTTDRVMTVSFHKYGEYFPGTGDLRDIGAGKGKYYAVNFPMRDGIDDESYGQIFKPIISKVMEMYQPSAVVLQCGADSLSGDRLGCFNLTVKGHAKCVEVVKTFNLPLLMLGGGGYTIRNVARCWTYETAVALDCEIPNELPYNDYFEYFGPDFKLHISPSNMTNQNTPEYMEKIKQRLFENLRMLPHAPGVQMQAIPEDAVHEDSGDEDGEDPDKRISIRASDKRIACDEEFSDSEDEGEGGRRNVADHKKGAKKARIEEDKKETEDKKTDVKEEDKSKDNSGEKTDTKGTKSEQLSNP
HDAC1, sequence (Q13547 whole entry): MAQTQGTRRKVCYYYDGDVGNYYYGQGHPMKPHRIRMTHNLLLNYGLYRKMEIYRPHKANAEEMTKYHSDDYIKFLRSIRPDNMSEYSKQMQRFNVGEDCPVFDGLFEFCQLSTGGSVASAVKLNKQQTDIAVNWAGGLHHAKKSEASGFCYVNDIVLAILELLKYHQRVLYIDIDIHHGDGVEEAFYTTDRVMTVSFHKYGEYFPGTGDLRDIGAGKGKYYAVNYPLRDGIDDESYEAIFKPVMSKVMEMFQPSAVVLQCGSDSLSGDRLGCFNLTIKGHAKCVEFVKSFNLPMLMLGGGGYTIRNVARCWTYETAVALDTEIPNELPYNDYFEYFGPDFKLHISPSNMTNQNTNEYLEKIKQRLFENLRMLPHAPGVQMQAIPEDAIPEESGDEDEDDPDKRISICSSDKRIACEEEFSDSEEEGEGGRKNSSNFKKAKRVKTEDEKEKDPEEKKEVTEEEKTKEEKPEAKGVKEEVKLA

SMILES: CNCCC(Oc1ccc(C(F)(F)F)cc1)c1ccccc1 (stereo not drawn) [fluoxetine, reference compound]
percentage of resilient mice (mice [1]): 60%

SMILES: CC(/C=C/C(=O)NO)=C\[C@@H](C)C(=O)c1ccc(N(C)C)cc1 [TSA, trichostatin A, reference compound]
increase in acetylation of histone H3 at lysine 9 ([2]; TSA 0.6 μM): 94% | acetylated (lysine 40) fraction of α-tubulin [3]: increases

SMILES: CNC1=Nc2ccc(Cl)cc2C(c2ccccc2)=[N+]([O-])C1 [CDP, reference compound]
behavioral changes / time in the open arms of the maze (mice [4]): dramatically increased

SMILES: O=C(NO)c1cnc(NC2(c3ccccc3)CCCC2)nc1 [Compound 88]
HDAC3 fold versus HDAC6 (in brackets) (HDAC3): (679.1x) | HDAC2 fold versus HDAC6 (in brackets) (HDAC2): (296.1x) | HDAC1 fold versus HDAC6 (in brackets) (HDAC1): (215.2x)

HDAC3 fold versus HDAC6 (in brackets) (HDAC3): (16.4x) | HDAC2 fold versus HDAC6 (in brackets) (HDAC2): (12.1x) | HDAC1 fold versus HDAC6 (in brackets) (HDAC1): (8.3x)
SMILES: COc1ccc(C2(Nc3ncc(C(=O)NO)cn3)CC2)cc1 [Compound 97]

SMILES: O=C(NO)c1cnc(NC2(c3ccccc3)CCCCC2)nc1 [Compound 84]
HDAC3 fold versus HDAC6 (in brackets) (HDAC3): (613x) | HDAC2 fold versus HDAC6 (in brackets) (HDAC2): (403.4x) | HDAC1 fold versus HDAC6 (in brackets) (HDAC1): (302.2x)

SMILES: O=C(NO)c1cnc(NC2(c3ccccc3C(F)(F)F)CC2)nc1 [Compound 91]
HDAC3 fold versus HDAC6 (in brackets) (HDAC3): (169.4x) | HDAC2 fold versus HDAC6 (in brackets) (HDAC2): (130.2x) | HDAC1 fold versus HDAC6 (in brackets) (HDAC1): (72.3x)

SMILES: Cc1ccc(C2(Nc3ncc(C(=O)NO)cn3)CC2)cc1 [Compound 93]
HDAC3 fold versus HDAC6 (in brackets) (HDAC3): (51x) | HDAC2 fold versus HDAC6 (in brackets) (HDAC2): (34.7x) | HDAC1 fold versus HDAC6 (in brackets) (HDAC1): (25.9x)

SMILES: O=C(NO)c1cnc(NC2(c3ccccc3Cl)CC2)nc1 [Compound 90]
HDAC3 fold versus HDAC6 (in brackets) (HDAC3): (30.2x) | HDAC2 fold versus HDAC6 (in brackets) (HDAC2): (26.2x) | HDAC1 fold versus HDAC6 (in brackets) (HDAC1): (19.9x)

SMILES: O=C(NO)c1cnc(NC2(c3ccc(F)cc3)CCCCC2)nc1 [Compound 100]
HDAC3 fold versus HDAC6 (in brackets) (HDAC3): (1428.4x) | HDAC2 fold versus HDAC6 (in brackets) (HDAC2): (504.7x) | HDAC1 fold versus HDAC6 (in brackets) (HDAC1): (339.9x)

SMILES: CCCC(=O)[O-].[Na+] [sodium butyrate, reference compound]
histone H3K9 acetylation enrichment at promoter DNA (cFOS, BDNF promoter 4), ChIP [5]: increases in enrichment

SMILES: O=C(NO)c1cnc(NC2(c3ccc(F)cc3)CC2)nc1 [Compound 81]
HDAC3 fold versus HDAC6 (in brackets) (HDAC3): (46.4x) | HDAC2 fold versus HDAC6 (in brackets) (HDAC2): (30.2x) | HDAC1 fold versus HDAC6 (in brackets) (HDAC1): (18.3x)

30 min plasma concentration (ng/ml) - 5 mg/kg ([9]; 5 mg/kg): 278 ng/mL | Cmax ([9]; mice, acute i.p. dosing): 496 ng/mL | T½ plasma ([9]; mice, acute i.p. dosing): 2 h | plasmatic half-life ([9]; mouse, in vivo): 2 h
SMILES: CN1CCc2c(c3ccccc3n2Cc2ccc(C(=O)NO)cc2)C1 [Tubastatin A, reference compound]
change in histone H3K9 acetylation ([2]; 2.5 μM): no significant change | increase of α-tubulin acetylation in heart [6]: 268% | α-tubulin acetylation in whole brain lysates [7]: did not significantly change | exploratory activity in novel open-field arena (mice [8]): did not exhibit changes | increase in α-tubulin acetylation in tissue culture [3]: about 400% | acetylated (lysine 40) fraction of α-tubulin [3]: increases
